# Results reported in patent publication US8853196B2, “Aminochromane, aminothiochromane and amino-1,2,3,4-tetrahydroquinoline derivatives, pharmaceutical compositions containing them, and their use in therapy” (AbbVie Deutschland GmbH & Co. KG, priority 2011, dated 2014).
# Target: T1, human GlyT1c transporter (Homo sapiens, UniProt P48067)
# T1 construct: expressed in transfected cells; host or cells: CHO cells (recombinant; membranes)
# T1 sequence (P48067 1-706): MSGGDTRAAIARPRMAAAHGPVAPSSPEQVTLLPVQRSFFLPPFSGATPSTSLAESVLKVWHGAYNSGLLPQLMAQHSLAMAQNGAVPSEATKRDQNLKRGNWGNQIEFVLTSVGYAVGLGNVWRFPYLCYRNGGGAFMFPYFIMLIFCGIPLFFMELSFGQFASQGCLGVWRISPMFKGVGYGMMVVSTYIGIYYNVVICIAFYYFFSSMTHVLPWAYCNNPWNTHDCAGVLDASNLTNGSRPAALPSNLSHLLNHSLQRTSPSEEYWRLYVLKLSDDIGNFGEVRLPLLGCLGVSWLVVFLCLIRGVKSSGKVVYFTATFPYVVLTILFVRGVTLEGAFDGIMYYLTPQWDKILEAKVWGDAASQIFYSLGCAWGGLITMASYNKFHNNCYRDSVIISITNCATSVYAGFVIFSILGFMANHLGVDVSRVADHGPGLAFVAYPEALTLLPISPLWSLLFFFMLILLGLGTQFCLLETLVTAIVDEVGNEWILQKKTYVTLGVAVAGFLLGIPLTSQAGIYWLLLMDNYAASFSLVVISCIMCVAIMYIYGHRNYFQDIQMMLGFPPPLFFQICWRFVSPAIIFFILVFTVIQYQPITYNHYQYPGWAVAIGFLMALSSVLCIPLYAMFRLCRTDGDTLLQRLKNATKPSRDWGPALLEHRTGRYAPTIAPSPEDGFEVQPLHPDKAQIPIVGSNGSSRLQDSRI
# Test: Radioligand binding assay using recombinant CHO cell membranes expressing human GlyT1
# Conditions: values given as upper bounds, read-out: radioligand binding Kiapp
# Method: 2. Radioligand Binding Assays Using Recombinant CHO Cell Membranes Expressing Human GlyT1:
# Radioligand binding to human GlyT1c transporter-expressing membranes was determined as described in Mezler et al., Molecular Pharmacology 74:1705-1715, 2008.
row,Compound,Ki [nM]
1,"CN[C@@H]1COc2ccc(CNS(=O)(=O)C3CCC3)cc2[C@H]1Cc1ccccc1 (relative stereo) [Example 26, trans-Cyclobutanesulfonic acid (4-benzyl-3-methylamino-chroman-6-ylmethyl)-amide]",≤ 1000
2,"CCS(=O)(=O)NCc1cc2c(cc1F)OC[C@@H](NC)[C@H]2Cc1ccccc1 (relative stereo) [Example 27, cis-Ethanesulfonic acid (-4-benzyl-7-fluoro-3-methylamino-chroman-6-ylmethyl)-amide]",≤ 10
3,"CCS(=O)(=O)NCc1cc2c(cc1F)OC[C@@H](NC)[C@@H]2Cc1ccccc1 (relative stereo) [Example 28, trans-Ethanesulfonic acid (-4-benzyl-7-fluoro-3-methylamino-chroman-6-ylmethyl)-amide]",≤ 100
4,"CCS(=O)(=O)NCCOc1cc2c(cc1F)OC[C@@H](NC)[C@H]2Cc1ccccc1 (relative stereo) [Example 29, cis-Ethanesulfonic acid [2-(-4-benzyl-7-fluoro-3-methylamino-chroman-6-yloxy)-ethyl]-amide]",≤ 100
5,"CCS(=O)(=O)NCCOc1cc2c(cc1F)OC[C@@H](NC)[C@@H]2Cc1ccccc1 (relative stereo) [Example 30, trans-Ethanesulfonic acid [2-(-4-benzyl-7-fluoro-3-methylamino-chroman-6-yloxy)-ethyl]-amide]",≤ 1000
6,"CN[C@@H]1COc2cc(F)c(CNS(=O)(=O)c3cn(C)cn3)cc2[C@@H]1Cc1ccccc1 (relative stereo) [Example 31, cis-1-Methyl-1H-imidazole-4-sulfonic acid (-4-benzyl-7-fluoro-3-methylamino-chroman-6-ylmethyl)-amide]",≤ 100
7,"CN[C@@H]1COc2cc(F)c(CNS(=O)(=O)c3cn(C)cn3)cc2[C@H]1Cc1ccccc1 (relative stereo) [Example 32, trans-1-Methyl-1H-imidazole-4-sulfonic acid (-4-benzyl-7-fluoro-3-methylamino-chroman-6-ylmethyl)-amide]",≤ 10
8,"Cn1cnc(S(=O)(=O)NCc2ccc3c(c2)[C@H](Cc2ccccc2)[C@H](NCCC2CC2)CO3)c1 (relative stereo) [Example 33, cis-N-((-4-benzyl-3-((2-cyclopropylethyl)amino)chroman-6-yl)methyl)-1-methyl-1H-imidazole-4-sulfonamide 2,2,2-trifluoroacetate]",≤ 10
9,"Cn1cnc(S(=O)(=O)NCc2ccc3c(c2)[C@H](Cc2ccccc2)[C@H](NCCC2CCCC2)CO3)c1 (relative stereo) [Example 34, cis-N-((-4-benzyl-3-((2-cyclopentylethyl)amino)chroman-6-yl)methyl)-1-methyl-1H-imidazole-4-sulfonamide 2,2,2-trifluoroacetate]",≤ 10000
10,"CCCN[C@@H]1COc2ccc(CNS(=O)(=O)c3cn(C)cn3)cc2[C@@H]1Cc1ccccc1 (relative stereo) [Example 35, cis-N-((-4-benzyl-3-(propylamino)chroman-6-yl)methyl)-1-methyl-1H-imidazole-4-sulfonamide 2,2,2-trifluoroacetate]",≤ 10
11,"Cn1cnc(S(=O)(=O)NCc2ccc3c(c2)[C@H](Cc2ccccc2)[C@H](NCC(C)(C)C)CO3)c1 (relative stereo) [Example 36, cis-N-((-4-benzyl-3-(neopentylamino)chroman-6-yl)methyl)-1-methyl-1H-imidazole-4-sulfonamide 2,2,2-trifluoroacetate]",≤ 100
12,"CC(C)CN[C@@H]1COc2ccc(CNS(=O)(=O)c3cn(C)cn3)cc2[C@@H]1Cc1ccccc1 (relative stereo) [Example 37, cis-N-((-4-benzyl-3-(isobutylamino)chroman-6-yl)methyl)-1-methyl-1H-imidazole-4-sulfonamide 2,2,2-trifluoroacetate]",≤ 10
13,"CC(C)CCN[C@@H]1COc2ccc(CNS(=O)(=O)c3cn(C)cn3)cc2[C@@H]1Cc1ccccc1 (relative stereo) [Example 39, cis-N-((-4-benzyl-3-(isopentylamino)chroman-6-yl)methyl)-1-methyl-1H-imidazole-4-sulfonamide 2,2,2-trifluoroacetate]",≤ 10
14,"Cn1cnc(S(=O)(=O)NCc2ccc3c(c2)[C@H](Cc2ccccc2)[C@H](NCC2CCCC2)CO3)c1 (relative stereo) [Example 40, cis-N-((-4-benzyl-3-((cyclopentylmethyl)amino)chroman-6-yl)methyl)-1-methyl-1H-imidazole-4-sulfonamide 2,2,2-trifluoroacetate]",≤ 100
15,"Cn1cnc(S(=O)(=O)NCc2ccc3c(c2)[C@H](Cc2ccccc2)[C@H](NCC2CCC2)CO3)c1 (relative stereo) [Example 41, cis-N-((-4-benzyl-3-((cyclobutylmethyl)amino)chroman-6-yl)methyl)-1-methyl-1H-imidazole-4-sulfonamide 2,2,2-trifluoroacetate]",≤ 10
16,"CN[C@@H]1COc2ccc(CNS(C)(=O)=O)cc2[C@H]1Cc1ccccc1 (relative stereo) [Example 61, trans-N-(-4-Benzyl-3-methylamino-chroman-6-ylmethyl)-methanesulfonamide]",≤ 1000
17,"Cn1cnc(S(=O)(=O)NCc2ccc3c(c2)[C@H](Cc2ccccc2)[C@H](N2CCCC2)CO3)c1 (relative stereo) [Example 62, cis-1-Methyl-1H-imidazole-4-sulfonic acid (-4-benzyl-3-pyrrolidin-1-yl-chroman-6-ylmethyl)-amide]",≤ 10
18,"CCS(=O)(=O)NCc1ccc2c(c1)[C@H](Cc1ccccc1)[C@H](N1CCCC1)CO2 (relative stereo) [Example 63, cis-Ethanesulfonic acid (-4-benzyl-3-pyrrolidin-1-yl-chroman-6-ylmethyl)-amide]",≤ 100
19,"CS(=O)(=O)NCc1ccc2c(c1)[C@H](Cc1ccccc1)[C@H](N1CCCC1)CO2 (relative stereo) [Example 64, cis-N-(-4-Benzyl-3-pyrrolidin-1-yl-chroman-6-ylmethyl)-methanesulfonamide]",≤ 1000
20,"O=S(=O)(CC1CC1)NCc1ccc2c(c1)[C@H](Cc1ccccc1)[C@H](N1CCCC1)CO2 (relative stereo) [Example 65, cis-N-(-4-Benzyl-3-pyrrolidin-1-yl-chroman-6-ylmethyl)-C-cyclopropyl-methanesulfonamide]",≤ 10
21,"Cn1cc(S(=O)(=O)NCc2ccc3c(c2)[C@H](Cc2ccccc2)[C@H](N2CCCC2)CO3)cn1 (relative stereo) [Example 66, cis-1-Methyl-1H-pyrazole-4-sulfonic acid (-4-benzyl-3-pyrrolidin-1-yl-chroman-6-ylmethyl)-amide]",≤ 10
22,"N[C@@H]1COc2ccc(CNS(=O)(=O)CC3CC3)cc2[C@@H]1Cc1ccccc1 (relative stereo) [Example 67, cis-N-(-3-Amino-4-benzyl-chroman-6-ylmethyl)-C-cyclopropyl-methanesulfonamide]",≤ 10
23,"N[C@@H]1COc2ccc(CNS(=O)(=O)CC3CC3)cc2[C@H]1Cc1ccccc1 (relative stereo) [Example 68, trans-N-(-3-Amino-4-benzyl-chroman-6-ylmethyl)-C-cyclopropyl-methanesulfonamide]",≤ 100
24,"N[C@@H]1COc2ccc(CNS(=O)(=O)C3CCC3)cc2[C@@H]1Cc1ccccc1 (relative stereo) [Example 69, cis-Cyclobutanesulfonic acid (-3-amino-4-benzyl-chroman-6-ylmethyl)-amide]",≤ 100
25,"N[C@@H]1COc2ccc(CNS(=O)(=O)C3CCC3)cc2[C@H]1Cc1ccccc1 (relative stereo) [Example 70, trans-Cyclobutanesulfonic acid (-3-amino-4-benzyl-chroman-6-ylmethyl)-amide]",≤ 1000
26,"CCCS(=O)(=O)NCc1ccc2c(c1)[C@H](Cc1ccccc1)[C@H](N)CO2 (relative stereo) [Example 71, cis-Propane-1-sulfonic acid (-3-amino-4-benzyl-chroman-6-ylmethyl)-amide]",≤ 100
27,"CCCS(=O)(=O)NCc1ccc2c(c1)[C@@H](Cc1ccccc1)[C@H](N)CO2 (relative stereo) [Example 72, trans-Propane-1-sulfonic acid (-3-amino-4-benzyl-chroman-6-ylmethyl)-amide]",≤ 100
28,"CCS(=O)(=O)NCCOc1ccc2c(c1)[C@@H](Cc1ccccc1)[C@H](NC)C(C)(C)O2 (relative stereo) [Example 73, trans-Ethanesulfonic acid [2-(-4-benzyl-2,2-dimethyl-3-methylamino-chroman-6-yloxy)-ethyl]-amide]",≤ 1000
29,"CCCS(=O)(=O)NCCOc1ccc2c(c1)[C@H](Cc1ccccc1)[C@H](NC)C(C)(C)O2 (relative stereo) [Example 74, cis-Propane-1-sulfonic acid [2-(-4-benzyl-2,2-dimethyl-3-methylamino-chroman-6-yloxy)-ethyl]-amide]",≤ 1000
